According to PMC7156724, “Potent BRD4 inhibitor suppresses cancer cell-macrophage interaction” (Nature Communications, 2020):
Values joined by “and” are separate entries in the source; they are usually repeats but may differ in a detail not shown here. Equal entries are not always repeated.

Key:
[1] = tested on: NCI-H211 small cell lung cancer (SCLC) cells; experiment: AlamarBlue assay, NCI-H211; type: cell-based; conditions: for Cellular activity in SCLCs (H211), alamarBlue: Fig.1e, replicates
Description: (§1) 3. AlamarBlue assay. AlamarBlue was made by resazurin sodium salt (Sigma, Cat
(§2) # 199303) dissolved in PBS.
(§3) NCI-H211, MDA-MB231 and A375 cells were plated in 96-well plates at approximately 30% confluence and left overnight to adhere. In the following day, […]
(§4) of treatment, 10 μl AlamarBlue reagent (0.3 mg/ml) was added to each well, and after 18h, the florescence intensity in each well was measured using a top-reading fluorescent plate reader with excitation at 530 nm and emission at 590 nm. […]

[2] = tested on: MDA-MB231 triple negative breast cancer (TNBC) cells; experiment: AlamarBlue assay, MDA-MB231; type: cell-based, human; conditions: for Cellular activity in TNBCs (MDA-MB231), alamarBlue: Fig.1f, replicates
Description: as §1, §2, §3, §4

[3] = tested on: phosphorylated BRD4 and c-MYC; experiment: Western blot of p-BRD4, BRD4 and c-MYC in solid tumor cell lines; type: cell-based, human; conditions: 50 nM, 24 h
Description: (§5) Fig. 2 NHWD-870 inhibited BRD4 phosphorylation and c-MYC expression, and suppressed cell growth. a Representative western blot analysis of p-BRD4 (s484/488), BRD4, c-MYC, and GAPDH after treatment of MDA-MB231, SUM159, A2780 ES-2, and H526 cells with JQ-1 or NHWD-870 at the indicated concentrations for 24 h. GAPDH served as the loading control. Selected from three independent experiments. b MTT assays of H526, A2780, ES-2, and MDA-MB231 cells treated with JQ-1 or NHWD-870 at the indicated concentrations for 5 days. Data are presented as mean ± SEM from three independent experiments. c, d Clonogenic assays of H526, A2780, ES-2 and MDA-MB231 cells treated with 250 nM JQ-1 or NHWD-870 for 5 days. Shown are representative images (c) and quantification of colonies (d). […] Shown are representative images (e) and quantification of relative colony sizes (f). Scale bar, 50 μm. Data are presented as mean ± SEM from five independent experiments. p values were calculated using two-tailed, unpaired t tests in this figure. **p < 0.01; ***p < 0.001. Source data are provided as a Source Data file. […]
4. Protein extraction and w estern blot anal ysis. Freshly dissected unfixed tissue was homogenized in lysis buffer. The lysates were centrifuged at 13,000g for 10 minutes at 4°C. Supernatants were collected and determined with a Bradford Protein Assay kit (Bio-Rad, Hercules, CA). The cell lysates were subjected to SDS-PAGE followed by immunoblotting (Immobilon P; Millipore, Milford, MA) with specific antibodies followed by detection using an enhanced chemilumine scence kit (Amersham Life Science, Arlington Heights, IL). […]

H526 cells = experiment: Clonogenic (colony formation) assay, H526; type: cell-based, human; conditions: H526, 250 nM, 5 days
Description: as §5
(§6) 5. Colony formation assay. Cells were seeded in 6-well plates at 3,000 cells/well […]
(§7) every week. […] Colony numbers were calculated with imageJ version

A2780 cells = experiment: Clonogenic (colony formation) assay, A2780; type: cell-based, human; conditions: A2780, 250 nM, 5 days
Description: as §5, §6, §7

ES-2 cells = experiment: Clonogenic (colony formation) assay, ES-2; type: cell-based, human; conditions: ES-2, 250 nM, 5 days
Description: as §5, §6, §7

MDA-MB231 cells = experiment: Clonogenic (colony formation) assay, MDA-MB231; type: cell-based, human; conditions: MDA-MB231, 250 nM, 5 days
Description: as §5, §6, §7

[4] = tested on: BRD4 binding to the HIF1α promoter; design: method as in PMID 30224758, PMID 29054992; conditions: MDA-MB 231 cells ref 45, 46; cited from earlier work

With `Cc1sc2c(c1C)C(c1ccc(Cl)cc1)=N[C@@H](CC(=O)OC(C)(C)C)c1nnc(C)n1-2` [JQ1, reference compound] the IC50 ([1]; 72 h treatment, nM, read-out: IC50, cellular activity in NCI-H211 (alamarBlue)) was 102 nM, the “Cellular activity in SCLCs (H211), alamarBlue” value (“Cellular activity in SCLCs” for short) ([1]; concentration 0.0169701) was 8.89 and 26.86 and the “Cellular activity in SCLCs” value ([1]; concentration 0.0398488) was 1.52 and 21.49. For the same compound, the “Cellular activity in SCLCs” value ([1]; concentration 0.137272) was 0.75 and 21.87, the “Cellular activity in SCLCs” value ([1]; concentration 0.614394) was 3.74 and 1.29 and the “Cellular activity in SCLCs” value ([1]; concentration 1.09152) was 4.01 and 4.44. The “Cellular activity in SCLCs” value ([1]; concentration 1.56864) was 8.74 and 4.85, the “Cellular activity in SCLCs” value ([1]; concentration 2.04576) was 60.7 and 49.9 and the “Cellular activity in SCLCs” value ([1]; concentration 3) was 94.26 and 94.75. The “Cellular activity in SCLCs” value ([1]; concentration column prints 2.52288) was 94.02 and 94.2, the IC50 ([2]; 72 h treatment, nM, read-out: IC50, cellular activity in MDA-MB231 (alamarBlue)) was 65 nM and the “Cellular activity in TNBCs (MDA-MB231), alamarBlue” value (“Cellular activity in TNBCs” for short) ([2]; concentration 0.15) was 0.75 and 21.87. The “Cellular activity in TNBCs” value ([2]; concentration 0.6) was 3.74 and 1.29, the “Cellular activity in TNBCs” value ([2]; concentration 1) was 19.01 and 19.44 and the “Cellular activity in TNBCs” value ([2]; concentration 1.5) was 38.74 and 34.85. The “Cellular activity in TNBCs” value ([2]; concentration 2) was 60.7 and 49.9, the “Cellular activity in TNBCs” value ([2]; concentration 2.5) was 94.02 and 94.2 and the “Cellular activity in TNBCs” value ([2]; concentration 3) was 94.26 and 94.75. The “Cellular activity in TNBCs” value ([2]; concentration -0.3) was 1.52 and 21.49, the “Cellular activity in TNBCs” value ([2]; concentration -0.9) was 8.89 and 26.86 and the “effect on phosphorylated BRD4 and c-MYC (western blot)” value [3] was “no effect”. For the same compound, the “Clone Number (clonogenic assay)” value (H526 cells) was 627 and 705 and 686 and 632 and 603, the “Clone Number (clonogenic assay)” value (A2780 cells) was 839 and 794 and 803 and 802 and 753 and the “Clone Number (clonogenic assay)” value (ES-2 cells) was 575 and 505 and 619 and 501 and 621. For the same compound, the “Clone Number (clonogenic assay)” value (MDA-MB231 cells) was 1294 and 1205 and 1074 and 1155 and 1020 and the “BRD4 binding to the HIF1α promoter (ChIP-seq)” value [4] was “reduced BRD4 binding to the HIF1α promoter”.
